Data published in PMC8485325, “Penetrating the Blood-Brain Barrier with New Peptide–Porphyrin Conjugates Having anti-HIV Activity” (Bioconjugate Chemistry, 2021).
Read-outs that look alike come from different tables or passages of the source. Ends that are not written are not given here.

Experiments:
[1] = test system: HIV-1NL4-3; test: In vitro inhibition of HIV-1NL4-3 infection of TZM-bl cells (luciferase reporter); assay type: cell-based; details: for IC50: TZM-bl cells; for HIV inhibition (in words): in vitro, absence of photoactivation
Method: Viral supernatants harvested from pNL4-3-transfected HEK293T cells were titered through the Reed-Muench method[56] based on HIV-1NL4–3 infectivity against TZM-bl cell cultures. TZM-bl cells were seeded at 2 × 10^4 cells/well in tissue culture-treated 96-well microplates from Corning (Corning, NY, USA), and incubated for 24 h. Cells were then incubated with 2-fold serial dilutions of viral supernatants for 3 h, after which the supernatant was replaced with fresh complete medium. After 45 h, TZM-bl cell infection was quantified through luciferase reporter-gene expression levels, under the control of an HIV-1 TAT-dependent LTR promoter[57] using the Luc-Screen luciferase chemiluminescence detection system. Luminescence was measured in an Infinite M200 microplate reader from Tecan (Männedorf, Switzerland). […] Titration was performed with at least four replicates to allow accurate estimation of TCID50 in viral supernatants.
The inhibitory activity of conjugates on HIV-1NL4–3 entry into TZM-bl cells was evaluated as previously described.[58] TZM-bl cells were seeded at 2 × 10^4 cells/well in tissue culture-treated 96-well microplates and incubated for 24 h. HIV-1NL4–3 viral supernatants (100 or 10 TCID50/well) were then incubated for 1 h with 2-fold serial dilutions of either nonconjugated peptide and porphyrins or conjugates, after which the infection mixture was added to TZM-bl cells. Untreated cells (in the absence of peptide–porphyrin conjugate) were used as control. Virions were incubated with cells for 3 h, after which cells were washed to remove unbound virions and new medium was added. After 45 h, infection was quantified by the Luc-Screen chemiluminescence assay. Measurements were performed in an Infinite M200 microplate reader. […] At least three independent experiments were performed for each assay.

[2] = test system: bEnd.3 cell monolayers; test: In vitro BBB translocation assay (bEnd.3 transwell model)
From the text: Assessment of PPC efficacy in BBB translocation was done in a transwell setup (Figure 4A) using bEnd.3 cell monolayers.[44] The bEnd.3 in vitro BBB model consists of a monolayer of cells expressing a range of essential BBB transporters, also bearing the low permeability characteristic of the BBB, suitable for this study.[44]−[46]
Figure 4 PPCs translocation across a bEnd.3 in vitro BBB model. (A) bEnd.3 in vitro BBB model transwell system. The insert, or apex, corresponds to the blood side, while the base (bottom chamber) corresponds to the brain side. (B) After formation of a monolayer, 10 μM of each conjugate was added to the apical side of the tissue culture inserts. After incubation for 24 h, samples from the basolateral side were collected, and the percentage of translocation of each conjugate (black) was calculated. FD4 permeability (gray) was measured to determine monolayer integrity post-PPCs translocation.
An in vitro BBB model consisting of endothelial cells growing on the apical side of a porous membrane was used.[46] bEnd.3 cells (ATTCC-CRL2299) were cultured as a monolayer on T-flasks in DMEM supplemented with 10% fetal bovine serum (FBS), 1% penicillin/streptomycin. Cells were grown in a humidified atmosphere of 5% CO2 at 37 °C (MCO-18AIC (UV), Sanyo, Japan) with the medium changed every other day. Cells were allowed to grow until confluence in a culture T-flask, and then carefully harvested with trypsin-EDTA and seeded (3500 cells/well) onto fibronectin-coated tissue culture 24-well inserts (transparent polyester membrane with 1.0 μm pores) (BD Falcon, USA). The medium was changed every other day for 10 days, after which cells were washed twice with 1× PBS and once with DMEM medium without phenol red. Next, conjugates diluted in DMEM without phenol red to a final concentration of 10 μM were added to the apical side of the in vitro BBB model (Figure 4A). Experiments were performed on different days using independently grown cell cultures.
The translocation of conjugates was determined by fluorescence intensity (λexc = 380 nm and λem = 625 nm for MP conjugates, and λexc = 380 nm and λem = 675 nm for PP conjugates). P3-CF and P5-CF, peptides labeled with 5(6)-Carboxyfluorescein (CF), were used as positive translocation controls (λexc = 492 nm and λem = 517 nm). After 24 h incubation, samples from the apical and basolateral side were collected and analyzed. Fluorescence was measured using a Varioskan Lux plate reader (Thermo Scientific, MA, USA). The percentage (%) of translocation was calculated using the following equation: [drawing 1] 1 where Fi is the recovered fluorescence intensity, Fcells is the recovered fluorescence intensity from cells without the conjugate, and Fconjugate is the fluorescence intensity of total peptide initially added to the transwell apical side.

[3] = test system: TZM-bl cells; assay type: cell-based
Method: TZM-bl Cell Viability Studies
The cytotoxic effects of each PPC on TZM-bl cell cultures were assessed to ensure that HIV inhibition was a result of the compounds effect on the virus and not on the host cells used in the assay. A resazurin reduction fluorometric assay was performed. Resazurin, the active compound in alamarBlue®, is a blue dye that can be reduced to a pink fluorescent intermediate, resorufin, as a result of cell metabolic activity.6 TZM-bl cells were seeded at 2x10^4 cells/well in tissue culture-treated 96-well microplates and incubated for 24 h. Cells were then incubated with serial dilutions (2-fold) of single peptide and porphyrins, or PPC, for 3 h, after which the mixture was replaced with fresh complete medium. Untreated cells (in the absence of peptide-porphyrin combinations) were used as a control. After 42 h, media was replaced with alamarBlue® reagent and incubated for an additional 3 h. Resazurin reduction was quantified by resorufin fluorescent emission intensity, measured in an Infinite M200 microplate reader. Fluorescence emission intensity was collected at 590 nm, using a fixed λ exc of 560 nm. Excitation and emission slits were 9 and 20 nm, respectively. Cell viability was calculated through the following formalism: […]
where I EI corresponds to the resorufin fluorescence emission intensity in the presence of EIs or combination, I control to the fluorescence emission intensity in the absence of EIs and I background to the background fluorescence emission from the non-reduced […]
P5, P4-MP, MP-L-P3 and P4-L-M - are presented here.
TZM-bl cell viability on the concentration range tested.
(1 picture or pasted object on this page, not shown here)
Figure S7. PPCs cytotoxic effects against TZM-bl cells. A resazurin reduction fluorometric assay, dependent on the cell metabolic activity, was used. Cell viability, normalized to the control in the absence of PPC, was measured against three concentrations of each individual PPC: MP-P3 (black), MP-P5 (white), P4-MP (red), MP-L-P3 (blue) and P4-L-MP (green).

[4] = 10 TCDI50 per well (approximate physiological conditions of HIV brain infection), read-out: IC50 HIV inhibition, 10 TCDI50
[5] = 100 TCDI50 per well, no-light, read-out: IC50 HIV inhibition, 100 TCDI50

MP-P5: mesoporphyrin IX coupled to the N-terminal amino group of peptide P5 (SGTQEEY-amide) ({mesoporphyrin IX}-SGTQEEY-NH2)
IC50 [1, 4]: 10 ± 2.9 µM | IC50 [1, 5]: 33.1 ± 1.38 µM | HIV inhibition (in words) [1]: inhibit HIV in vitro | BBB translocation (in words) [2]: able to effectively pass the BBB | TZM-bl cell viability (in words) [3]: did not alter significantly

P4-MP: mesoporphyrin IX coupled to the C-terminal Lys side chain of peptide P4 (AGILKRWK-amide) (AGILKRWK(mesoporphyrin IX)-NH2)
IC50 [1, 4]: 5.77 ± 1.17 µM | IC50 [1, 5]: 34 ± 1.25 µM | HIV inhibition (in words) [1]: inhibit HIV in vitro | BBB translocation (in words) [2]: able to effectively pass the BBB | TZM-bl cell viability (in words) [3]: did not alter significantly
